This note sets out measurements from ChEMBL document CHEMBL5370551, “Inside PD-1/PD-L1,2 with their inhibitors” (Eur J Med Chem, 2023).

pEC50, pIC50: −log10 of the molar value. Residues, ends and D or L forms follow the SMILES beside them.

For data set [1], the target named is Programmed cell death 1 ligand 1 (Homo sapiens) (UniProt Q9NZQ7). The data set can be described thus: Inhibition of human recombinant extracellular domain PD-L1 in human DU-145 cells incubated for 1 hr relative to control. The data set is classed as cell-based. Conditions: concentration not given here.
Data set [2] deals with T1, Programmed cell death protein 1/Programmed cell death 1 ligand 1 (Homo sapiens, UniProt Q15116+Q9NZQ7). Kind of data set: Inhibition of PD-I/PD-L1 interaction (unknown origin). The data set is classed as protein-complex assay.
Data set [3] addresses T2, PD1-PDL2 (Homo sapiens, UniProt Q15116+Q9BQ51). The data set can be described thus: Inhibition of PD-I/PD-L2 interaction (unknown origin) expressed in HEK293 cells. The data set is classed as cell-based.
In data set [4] the target is T2, PD1-PDL2. The data set can be described thus: Inhibition of PD-I/PD-L2 interaction (unknown origin) expressed in human […] cells. The data set is classed as cell-based.
The target of data set [5] is T1, Programmed cell death protein 1/Programmed cell death 1 ligand 1. The data set can be described thus: Inhibition of Fc-fused recombinant human PD-I/His-tagged recombinant human PD-L1 interaction incubated overnight by HTRF assay. The data set is classed as protein-complex assay. A general note: Time-resolved FRET reads energy transfer from a long-lived donor to a nearby acceptor.

Data set [6] shares this target. The data set can be described thus: Inhibition of PD-I/PD-L1 interaction (unknown origin) by ELISA. The data set is classed as protein-complex assay. In general terms: ELISA stands for enzyme-linked immunosorbent assay.
Data set [7] shares this target. The data set can be described thus: Inhibition of biotinylated human PD-I /His-tagged PD-L1 (unknown origin) interaction incubated for 90 mins in dark condition by AlphaLISA assay. The data set is classed as protein-complex assay.
Data set [8] has the same target. Kind of data set: Inhibition of PD-1/PD-L1 interaction (unknown origin) at 25 uM by AlphaLISA assay relative to control. The data set is classed as protein-complex assay. On the technique in general: Alpha assays give light when donor and acceptor beads are brought close together.
For data set [9] the target is unchanged. Kind of data set: Inhibition of PD-1/PD-L1 interaction (unknown origin) by HTRF assay. The data set is classed as protein-complex assay.
The subject of data set [10] is B16-F10. The data set can be described thus: Antitumor activity against mouse B16-F10 expressing human PD-L1 allografted in C57BL/6 mouse assessed as inhibition of tumor growth at 10 mg/kg, ip administered every 2 days for 24 days relative to control. The conditions noted are these: B16-F10, 48 h, time 2 day. The data set is classed as functional.
Data set [11] deals with B16-F10. Kind of data set: Antitumor activity against mouse B16-F10 expressing human PD-L1 allografted in C57BL/6 mouse assessed as inhibition of tumor growth at 10 mg/kg, ip administered every 3 days for 24 days relative to control. The data set is classed as functional. Conditions: B16-F10, 72 h, time 3 day.
The target of data set [12] is T1, Programmed cell death protein 1/Programmed cell death 1 ligand 1. The data set can be described thus: Inhibition of biotinylated human PD-I/human PD-L1 interaction at 100 uM incubated for 2 hrs by ELISA relative to control. The data set is classed as protein-complex assay.
The nature of data set [13]: Oral bioavailability in mouse. The data set is classed as ADME, organism-based. Conditions: in vivo.
Data set [14] has as its target Programmed cell death 1 ligand 1 (Homo sapiens) (UniProt Q9NZQ7). The data set can be described thus: Induction of PD-L1 degradation in human NCI-H292 at 20 uM relative to control. The data set is classed as cell-based.
Data set [15] relates to NCI-H292. Kind of data set: Cytotoxicity against human NCI-H292 cells assessed as inhibition of cell growth. The data set is classed as functional, cell-based.
Data set [16] addresses T1, Programmed cell death protein 1/Programmed cell death 1 ligand 1. Kind of data set: Inhibition of PD-I/PD-L1 interaction (unknown origin) by HTRF assay. The data set is classed as protein-complex assay.
A short description of data set [17]: Cytotoxicity against human MDA-MB-231 cells assessed as reduction in cell growth by MTT assay. The data set is classed as toxicity, cell-based.

T1 sequence (Q15116 whole entry): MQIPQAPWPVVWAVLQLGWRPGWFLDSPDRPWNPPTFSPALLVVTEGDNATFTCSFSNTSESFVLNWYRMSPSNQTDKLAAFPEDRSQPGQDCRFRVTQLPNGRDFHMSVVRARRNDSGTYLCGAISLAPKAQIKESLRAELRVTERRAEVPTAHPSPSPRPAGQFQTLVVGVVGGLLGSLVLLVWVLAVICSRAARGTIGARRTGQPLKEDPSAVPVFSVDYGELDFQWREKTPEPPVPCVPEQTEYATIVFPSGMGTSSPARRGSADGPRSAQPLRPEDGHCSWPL
T1 sequence (Q9NZQ7 whole entry): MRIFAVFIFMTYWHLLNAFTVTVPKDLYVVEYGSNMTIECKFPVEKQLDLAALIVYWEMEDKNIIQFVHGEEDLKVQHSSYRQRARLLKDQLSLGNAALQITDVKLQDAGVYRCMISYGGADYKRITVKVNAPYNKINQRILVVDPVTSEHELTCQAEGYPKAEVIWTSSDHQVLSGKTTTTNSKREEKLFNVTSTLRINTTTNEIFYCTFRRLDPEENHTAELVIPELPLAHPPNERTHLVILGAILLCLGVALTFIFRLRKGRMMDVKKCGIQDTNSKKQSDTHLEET
T2 sequence (Q15116 whole entry): as the sequence (Q15116 whole entry) above
T2 sequence (Q9BQ51 whole entry): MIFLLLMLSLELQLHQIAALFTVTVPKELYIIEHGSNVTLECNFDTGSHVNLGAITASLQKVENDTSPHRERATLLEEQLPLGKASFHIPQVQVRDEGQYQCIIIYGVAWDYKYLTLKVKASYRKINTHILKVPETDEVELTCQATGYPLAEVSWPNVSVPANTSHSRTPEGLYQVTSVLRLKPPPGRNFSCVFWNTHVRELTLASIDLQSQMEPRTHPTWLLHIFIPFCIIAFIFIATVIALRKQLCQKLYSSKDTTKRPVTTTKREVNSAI
Sequence of Programmed cell death 1 ligand 1 (Homo sapiens) (Q9NZQ7 whole entry, the tested form may be a part): as the sequence (Q9NZQ7 whole entry) above

For orientation: inhibition means how much of the control response was suppressed. Turning to `CC(C)C[C@H](NC(=O)[C@H](CC(N)=O)NC(=O)[C@H](Cc1c[nH]c2ccccc12)NC(=O)[C@@H](NC(=O)[C@H](Cc1ccc(O)cc1)NC(=O)[C@H](Cc1ccc(O)cc1)NC(=O)[C@H](CO)NC(=O)[C@H](CCCNC(=N)N)NC(=O)[C@H](Cc1c[nH]cn1)NC(=O)[C@@H](N)Cc1c[nH]c2ccccc12)[C@@H](C)O)C(=O)N[C@@H](CC(N)=O)C(=O)N[C@H](C(=O)O)[C@@H](C)O` (H-WHRSYYTWNLNT-OH), the inhibition in data set [1] was determined as 80%.
The pIC50 is the IC50 on a negative log10 scale, so that one unit is a factor of ten. As to `Cc1c(COc2ccc(CN[C@H](CO)C(=O)O)c(OCc3cccc(C#N)c3)c2)cccc1-c1ccc2c(c1)OCCO2`, in data set [2], the pIC50 is 8.65.
What is called pEC50 is −log10 of the EC50, conventionally taken in molar units. For the compound `CC[C@H](C)[C@H](NC(=O)[C@H](CCC(N)=O)NC(=O)[C@H](C)NC(=O)[C@H](CCCCN)NC(=O)[C@@H]1CCCN1C(=O)[C@H](C)NC(=O)[C@H](CC(C)C)NC(=O)[C@H](CCC(N)=O)NC(=O)[C@@H](NC(=O)[C@@H](NC(=O)[C@H](CCCNC(=N)N)NC(=O)[C@H](Cc1ccccc1)NC(=O)[C@H](CCCCNC(=O)[C@H](Cc1ccccc1)NC(=O)[C@H](CO)NC(=O)[C@H](CCC(=O)O)NC(=O)[C@H](CO)NC(=O)[C@@H](NC(=O)[C@H](CC(N)=O)NC(=O)[C@@H](N)CO)[C@@H](C)O)NC(=O)[C@H](Cc1ccccc1)NC(=O)[C@H](CO)NC(=O)[C@H](CCC(=O)O)NC(=O)[C@H](CO)NC(=O)[C@@H](NC(=O)[C@H](CC(N)=O)NC(=O)[C@@H](N)CO)[C@@H](C)O)C(C)C)[C@@H](C)O)C(=O)N[C@@H](CCCCN)C(=O)N[C@@H](CCC(=O)O)C(N)=O`, the pEC50 is 9.14 in data set [3] and 9.39 in data set [4].
In the case of `Cc1c(NC(=O)c2ccc(CNCCO)cn2)cccc1-c1cccc(NC(=O)c2ccc(CNCCO)cn2)c1C`, in [5], the pIC50 was […].
For `CSCC[C@H](NC(=O)[C@H](CC(=O)O)NC(=O)[C@H](Cc1ccccc1)NC(=O)[C@H](CCCNC(=N)N)NC(=O)[C@H](Cc1ccc(O)cc1)NC(=O)[C@H](CC(=O)O)NC(=O)[C@H](CCCNC(=N)N)NC(=O)[C@H](Cc1c[nH]c2ccccc12)NC(=O)[C@@H](NC(=O)[C@H](Cc1c[nH]c2ccccc12)NC(=O)[C@@H](N)CCCNC(=N)N)C(C)C)C(=O)NCC(=O)N[C@@H](Cc1ccccc1)C(=O)N[C@@H](CC(=O)O)C(=O)N[C@@H](Cc1c[nH]c2ccccc12)C(=O)N[C@H](C(=O)N[C@@H](Cc1c[nH]c2ccccc12)C(=O)N[C@@H](CCC(=O)O)C(=O)O)C(C)C` (H-RWVWRDYRFDMGFDWVWE-OH), the pIC50 in [6] was 6.22.
In data set [7], `CO[C@H]1/C=C/O[C@@]2(C)Oc3c(C)c(O)c4c(c3C2=O)C2=NC3(CCN(CC(C)C)CC3)NC2=C(NC(=O)/C(C)=C\C=C\[C@H](C)[C@H](O)[C@@H](C)[C@@H](O)[C@@H](C)[C@H](OC(C)=O)[C@@H]1C)C4=O` [RIFABUTIN] showed a pIC50 of 4.60.
Compound `Cc1cc(/C=C/c2ccc3cc(N(C)C)ccc3[n+]2C)c(C)n1-c1ccccc1` returned an inhibition in [8] of 44.5%. In data set [9], this compound gave a pIC50 of 4.52.
Usually inhibition in vivo stands for the change of the read-out against control, counted positive when it falls. Take `NC(=O)c1ccccc1NC(=O)c1ccc(-c2ccccc2)cc1`: the inhibition in vivo at 10 mg/kg in [10] is 62%; in data set [11] it was 66%.
The compound `O=C(c1cc2ccccc2[nH]1)N1CCN(Cc2csc(-c3ccccc3)n2)CC1` showed an inhibition in data set [12] of 21%.
As usually defined, the bioavailability is the share of a dose that reaches the circulation, judged against a reference dose that is usually intravenous. Low readings indicate little systemic uptake, high ones much systemic uptake. For the compound `CC1=C(C(=O)OCc2ccccc2)C(CC(C)(C)C)C(C(=O)OCc2ccccc2)=C(C)N1`, the bioavailability in data set [13] stood at 25%. The compound also registered an Activity in data set [14] of 67%. Moreover, the pIC50 in data set [15] is 4.21.
In data set [16], `COc1nc(-c2cccc(-c3ccccc3F)c2C)ccc1CNCCC(N)=O` gave a pIC50 of 9.05. Besides, the pEC50 in data set [17] is 4.95.
